# In patent US8334107B2, “Detection systems utilizing supported lipid bilayers” (priority 2005, dated 2012):
# B1: FcγRIIb: low affinity IgG receptor, single polypeptide chain of 310 amino acids (protein, UniProt P31994 43-310, looked up)
# Low affinity immunoglobulin …: TPAAPPKAVLKLEPQWINVLQEDSVTLTCRGTHSPESDSIQWFHNGNLIPTHTQPSYRFKANNNDSGEYTCQTGQTSLSDPVHLTVLSEWLVLQTPHLEFQEGETIVLRCHSWKDKPLVKVTFFQNGKSKKFSRSDPNFSIPQANHSHSGDYHCTGNIGYTLYSSKPVTITVQAPSSSPMGIIVAVVTGIAVAAIVAAVVALIYCRKKRISALPGYPECREMGETLPEKPANPTNPDEADKVGAENTITYSLLMHPDALEEPDDQNRI
# Legend:
# [1] = tested on: lipid bilayer; assay: Superquenching of fluorescent polymer coated lipid bilayer beads (general statement); type: biochemical; settings: streptolysin O with cholesterol-containing lipids, mellitin with anionic lipids
# Excerpt: On the other hand, some test agents may only lead to gaps or smaller interruptions of the lipid bilayer, for example, as a result of insertion of a channel- or pore-forming proteins such as gramicidin and hemolysin. In either case, the result is either complete or partial superquenching of the fluorescent polymer. In general, non-porous beads are used for such quenching assays because the quenchable polymer is preferably coated onto the beads and is not impregnated into the beads.
# [2] = tested on: anionic phospholipids; assay: Affinity of PLA2 for anionic phospholipids (Kim et al.); type: binding
# Excerpt: From FIG. 18, the association constant (corresponding to the reciprocal of the point of half saturation) for nMLT and sMLT with DMPG were 5×10^6 M^−1 and 1.7×10^6 M^−1, respectively. […] Lower concentrations of nMLT, in comparison to sMLT, were required to disrupt the DMPG lipid bilayer. This might be attributed to the fact that nMLT contains some phospholipase A2 (PLA2) as a contaminant. PLA2 has a high affinity for anionic phospholipids, with an association constant of 0.5×10^10 M^−1 (Kim et al., Anal. Chem. 250, 109-116 (1997)), which is about 3000 fold higher than that of MLT. Although PLA2 activity requires calcium, which is not present in the experimental system, it has been reported that even upon addition of EDTA to natural MLT, PLA2 maintains its activity, probably due to formation of a tight complex with calcium with PLA2 (Dempsey, C. E. Biochim. Biophys. Acta 1990, 1031, 143-161).
# [3] = tested on: anionic phospholipids; settings: cited from earlier work
# [4] = tested on: cholesterol (10%, molar ratio) containing lipid membrane; assay: Release of dye from porous particles coated with cholesterol containing lipid membrane by streptolysin-O; type: biochemical; settings: low concentrations of streptolysin-O versus control without
# Method: FIGS. 22A-B illustrate one aspect of the invention—drug and/or dye release from the present lipid-coated particles. FIG. 22A is a graph showing release of dye from porous particles (containing dye inside) where the particles are coated with a cholesterol (10%, molar ratio) containing lipid membrane. As increasing amounts of streptolysin-O are added (solid square symbols represent lower concentration than solid ovals), more dye is released. […] FIG. 22B illustrates how streptolysin-O can disrupt cholesterol-containing lipid bilayer membranes, leading to release of materials (e.g., drugs or antibiotics) enclosed within the membrane. Streptolysin-O is an anti-microbial protein that preferably binds to cholesterol and can disrupt cholesterol-containing membranes.
# [5] = target: monomeric IgG; settings: cited from earlier work
Molecule,effect on the lipid bilayer [1],association constant relative to that of MLT [2],association constant [3] [M⁻¹],release of dye [4],Kd [5] [µM]
"PLA2: lipolytic enzyme, contaminant of natural melittin",total disruption of the bilayer,about 3000 fold,5e+09,,
streptolysin-O: anti-microbial protein that preferably binds to cholesterol and can disrupt cholesterol-containing membranes,total disruption of the bilayer,,,greater than observed for control,
B1,,,,,~1
